pIC50: −log10 of the molar value. Numbered stars: 1 amine (or outer) side, 2 acyl side, 3 side chain; on linkers, the order of the positions; unused ones are H or OH. Bridge positions count the residues as written; N and C are the ends. Square brackets hold non-standard residues; d marks the D form. Peptide text beside a SMILES is read from it. * marks the point of attachment. hPhe(3-Cl-4-CF3) = N[C@@H](CCc1ccc(C(F)(F)F)c(Cl)c1)C(=O)O; hPhe(3-F,4-CF3) = N[C@@H](CCc1ccc(C(F)(F)F)c(F)c1)C(=O)O; NMePhe(4-CF3) = CN[C@@H](Cc1ccc(C(F)(F)F)cc1)C(=O)O; hPhe(4-CF3) = N[C@@H](CCc1ccc(C(F)(F)F)cc1)C(=O)O; NMeAbu(4,4,4-F3) = CN[C@@H](CC(F)(F)F)C(=O)O; NMePhe(4-Cl) = CN[C@@H](Cc1ccc(Cl)cc1)C(=O)O; NMedβ3hAla = C[C@H](CC(=O)[*:2])N(C)[*:1]; NMeGly(cPent) = CN[C@H](C(=O)O)C1CCCC1; Pro(4,4-F2) = O=C(O)[C@@H]1CC(F)(F)CN1; NMeCha = CN[C@@H](CC1CCCCC1)C(=O)O; NMeGly(cPr) = CN[C@H](C(=O)O)C1CC1; NMeChg = CN[C@H](C(=O)O)C1CCCCC1; NMeT = CN[C@H](C(=O)O)[C@@H](C)O; NMeD = CN[C@@H](CC(=O)O)C(=O)O; CH2CONHtBu = CC(C)(C)NC(=O)C*; NMeL = CN[C@@H](CC(C)C)C(=O)O; NMeV = CN[C@H](C(=O)O)C(C)C; d(β3hA) = C[C@@H](N)CC(=O)O; NMeS = CN[C@@H](CO)C(=O)O; dPip = O=C(O)[C@H]1CCCCN1; NMeA = CN[C@@H](C)C(=O)O; Piperidide = C1CCN(*)CC1; Pyrrolidide = C1CCN(*)C1; Ac5c = NC1(C(=O)O)CCCC1; Aze = O=C(O)[C@@H]1CCN1; Aib = CC(C)(N)C(=O)O; Sar = CNCC(=O)O Some results are limits rather than exact numbers.

The test system of the experiment is Human pancreatic cancer cell line AsPC-1 (G12D mutation Kras). In words: AsPC-1 cell growth inhibition (AsPC-1 CGI). The experiment is classed as cell-based. To be noted: read-out: AsPC-1 cell growth inhibition, 50% growth inhibitory concentration (IC50 value); 96 hours, CellTiter-Glo, values classified in ranges.
Method: Test compounds were serially dilated with dimethyl sulfoxide, and 200 nL was then dispensed to a U-bottom 96-well plate using Labcyte Echo. […] The cell suspension was dispensed to a. plate containing a test compound at 100 μL per well and incubated at 37° C. in a 5% carbon dioxide gas incubator. 96 hours later, 80 μL of CellTiter-Glo (Promega) was added to each well and fluorescence was measured.
With `CC[C@H](C)[C@@H]1NC(=O)[C@H](CC(C)C)N(C)C(=O)C[C@@H](C(=O)N2CCCCC2)N(C)C(=O)[C@H](C(C)C)N(C)C(=O)C2(CCCC2)NC(=O)[C@@H]2CCCN2C(=O)[C@H](CCc2ccc(C(F)(F)F)c(Cl)c2)NC(=O)CN(C)C(=O)[C@H](CC2CCCCC2)N(C)C(=O)[C@@H]2CCN2C(=O)[C@H](COCC(=O)NC(C)(C)C)N(C)C1=O` [Compound 998] ([NMeL]I[NMeS](CH2CONHtBu)[Aze][NMeCha][Sar][hPhe(3-Cl-4-CF3)]P[Ac5c][NMeV][NMeD]-Piperidide; lactam N-11), the pIC50 was < 6.30.
Regarding `CC[C@H](C)[C@@H]1NC(=O)[C@H](C)N(C)C(=O)C[C@@H](C)NC(=O)[C@H](CC(C)C)N(C)C(=O)C(C)(C)NC(=O)[C@@H]2CCCN2C(=O)[C@H](CCc2ccc(C(F)(F)F)cc2)NC(=O)CN(C)C(=O)[C@H](Cc2ccc(Cl)cc2)N(C)C(=O)CN(C)C(=O)CN(C)C1=O` [Compound 664] (cyclo([Aib][NMeL][d(β3hA)][NMeA]I[Sar][Sar][NMePhe(4-Cl)][Sar][hPhe(4-CF3)]P)), the pIC50 was < 6.30.
Next, `CC[C@H](C)[C@@H]1NC(=O)[C@H](CC(F)(F)F)N(C)C(=O)C[C@@H](C(=O)N2CCCC2)N(C)C(=O)[C@H](C2CCCCC2)N(C)C(=O)C2(CCCC2)NC(=O)[C@@H]2CC(F)(F)CN2C(=O)[C@H](CCc2ccc(C(F)(F)F)c(Cl)c2)NC(=O)CN(C)C(=O)[C@H](Cc2ccc(C(F)(F)F)cc2)N(C)C(=O)CN(C)C(=O)CN(C)C1=O` [Compound 1196] ([NMeAbu(4,4,4-F3)]I[Sar][Sar][NMePhe(4-CF3)][Sar][hPhe(3-Cl-4-CF3)][Pro(4,4-F2)][Ac5c][NMeChg][NMeD]-Pyrrolidide; lactam N-11): ≥ 7.70; `CC[C@H](C)[C@@H]1NC(=O)[C@H](C)N(C)C(=O)C[C@@H](C(=O)N2CCCCC2)N(C)C(=O)[C@H](C(C)C)N(C)C(=O)C2(CCCC2)NC(=O)[C@@H]2CCCN2C(=O)[C@H](CCc2ccc(C(F)(F)F)c(Cl)c2)NC(=O)[C@H]2CCCCN2C(=O)[C@H](CC2CCCCC2)N(C)C(=O)[C@@H]2CCN2C(=O)CN(C)C1=O` [Compound 553] ([NMeA]I[Sar][Aze][NMeCha][dPip][hPhe(3-Cl-4-CF3)]P[Ac5c][NMeV][NMeD]-Piperidide; lactam N-11): < 6.30; `CC[C@H](C)[C@@H]1NC(=O)[C@H](CC(C)C)N(C)C(=O)C[C@@H](C(=O)N2CCCCC2)N(C)C(=O)[C@H]([C@@H](C)O)N(C)C(=O)C2(CCCC2)NC(=O)[C@@H]2CCCN2C(=O)[C@H](CCc2ccc(C(F)(F)F)c(Cl)c2)NC(=O)CN(C)C(=O)[C@H](CC2CCCCC2)N(C)C(=O)CN(C)C(=O)CN(C)C1=O` [Compound 1041] ([NMeL]I[Sar][Sar][NMeCha][Sar][hPhe(3-Cl-4-CF3)]P[Ac5c][NMeT][NMeD]-Piperidide; lactam N-11): < 6.30.
Next, `CC(C)C[C@H]1C(=O)N[C@@H](C(C)C)C(=O)N(C)CC(=O)N(C)CC(=O)N(C)[C@@H](CC2CCCCC2)C(=O)N(C)CC(=O)N[C@@H](CCc2ccc(C(F)(F)F)c(F)c2)C(=O)N2CCC[C@H]2C(=O)NC2(CCCC2)C(=O)N(C)[C@@H](CC(C)C)C(=O)N[C@H](C)CC(=O)N1C` [Compound 1493] (cyclo([Ac5c][NMeL][d(β3hA)][NMeL]V[Sar][Sar][NMeCha][Sar][hPhe(3-F,4-CF3)]P)): < 6.30; `CC[C@H](C)[C@@H]1NC(=O)[C@H](CC(C)C)N(C)C(=O)C[C@@H](C(=O)N(C)C)N(C)C(=O)[C@H](C2CCCC2)N(C)C(=O)[C@H](C(C)C)NC(=O)[C@H](C)N(C)C(=O)[C@H](CCc2ccc(C(F)(F)F)c(Cl)c2)NC(=O)CN(C)C(=O)[C@H](CC2CCCCC2)N(C)C(=O)[C@@H]2CCN2C(=O)[C@H](C)N(C)C1=O` [Compound 102] ([NMeL]I[NMeA][Aze][NMeCha][Sar][hPhe(3-Cl-4-CF3)][NMeA]V[NMeGly(cPent)][NMeD]-NMe2; lactam N-11): < 6.30; `CC[C@H](C)[C@@H]1NC(=O)[C@H](CC(C)C)N(C)C(=O)C[C@@H](C)N(C)C(=O)[C@H](C2CC2)N(C)C(=O)C2(CCCC2)NC(=O)[C@@H]2CCCN2C(=O)[C@H](CCc2ccc(C(F)(F)F)c(Cl)c2)NC(=O)CN(C)C(=O)[C@H](CC2CCCCC2)N(C)C(=O)CN(C)C(=O)CN(C)C1=O` [Compound 874] (cyclo([Ac5c][NMeGly(cPr)][NMedβ3hAla][NMeL]I[Sar][Sar][NMeCha][Sar][hPhe(3-Cl-4-CF3)]P)): < 6.30.
`CC[C@H](C)[C@@H]1NC(=O)[C@H](CC(C)C)N(C)C(=O)C[C@@H](C(=O)N2CCCCC2)N(C)C(=O)[C@H](C2CCCCC2)N(C)C(=O)C2(CCCC2)NC(=O)[C@@H]2CCCN2C(=O)[C@H](CCc2ccc(C(F)(F)F)c(Cl)c2)NC(=O)CN(C)C(=O)[C@H](C)N(C)C(=O)CN(C)C(=O)CN(C)C1=O` [Compound 1681] ([NMeL]I[Sar][Sar][NMeA][Sar][hPhe(3-Cl-4-CF3)]P[Ac5c][NMeChg][NMeD]-Piperidide; lactam N-11): the pIC50 is < 6.30.

Source of the values: patent publication US20240148821A1, “PHARMACEUTICAL USE OF CYCLIC PEPTIDE COMPOUND” (CHUGAI SEIYAKU KABUSHIKI KAISHA, priority 2021, published 2024).
